Measured values as given in paper PMC6151550, “Inhibitory Effect of Selaginellins from Selaginella tamariscina (Beauv.) Spring against Cytochrome P450 and Uridine 5′-Diphosphoglucuronosyltransferase Isoforms on Human Liver Microsomes” (Molecules : A Journal of Synthetic Chemistry and Natural …, 2017).
Where two headings read alike, the source gives them in different places.

How the values were obtained:
Assay type in all cases: in vitro ADME
[1] = tested on: CYP3A; experiment: CYP3A inhibition (midazolam 1'-hydroxylase) in human liver microsomes, substrate cocktail LC-MS/MS
Experimental: (§1) The inhibitory effects of two selaginellins on the metabolism of ten P450 probe substrates were evaluated using previously reported method with minor modification. Phenacetin O-deethylase, coumarin 7-hydroxylase, bupropion 4-hydroxylase, amodiaquine N-deethylase, tolbutamide 4-hydroxylase, omeprazole 5-hydroxylase, dextromethorphan O-demethylase, chlorzoxazone 6-hydroxylase and midazolam 1′-hydroxylase activities were determined as probe activities for CYP1A2, CYP2A6, CYP2B6, CYP2C8, CYP2C9, CYP2C19, CYP2D6, CYP2E1 and […], respectively, using substrate cocktail incubation and tandem mass spectrometry (Table 2). Selaginellins were dissolved in methanol. The final concentrations of organic solvent (methanol) for the cocktail incubation conditions in all experiments were 1.0% (v/v). In brief, the incubation mixtures containing pooled HLMs (0.25 mg/mL, H2630, Xenotech), P450 probe substrate cocktail, and inhibitor (0, 0.5, 2, 5, 20 and 50 μM) were preincubated at 37 °C for 5 min. […] After mixing and centrifugation, aliquots were analyzed by liquid chromatography-tandem mass spectrometry (LC-MS/MS) as previous described. The CYP2J2 inhibitory effects of two selaginellins were also evaluated in pooled HLMs using previously reported method. […]

[2] = target: T1, UGT1A1 (Homo sapiens, UniProt P22309); experiment: UGT1A1 inhibition (SN-38 glucuronidation) in human liver microsomes, cocktail LC-MS/MS; conditions: IC50 UGT isoform 1A1, HLMs 0.25 mg/mL with alamethicin, SN-38 0.5 μM
T1 construct: from tissue; host or cells: human liver microsomes
T1 sequence (P22309 26-533): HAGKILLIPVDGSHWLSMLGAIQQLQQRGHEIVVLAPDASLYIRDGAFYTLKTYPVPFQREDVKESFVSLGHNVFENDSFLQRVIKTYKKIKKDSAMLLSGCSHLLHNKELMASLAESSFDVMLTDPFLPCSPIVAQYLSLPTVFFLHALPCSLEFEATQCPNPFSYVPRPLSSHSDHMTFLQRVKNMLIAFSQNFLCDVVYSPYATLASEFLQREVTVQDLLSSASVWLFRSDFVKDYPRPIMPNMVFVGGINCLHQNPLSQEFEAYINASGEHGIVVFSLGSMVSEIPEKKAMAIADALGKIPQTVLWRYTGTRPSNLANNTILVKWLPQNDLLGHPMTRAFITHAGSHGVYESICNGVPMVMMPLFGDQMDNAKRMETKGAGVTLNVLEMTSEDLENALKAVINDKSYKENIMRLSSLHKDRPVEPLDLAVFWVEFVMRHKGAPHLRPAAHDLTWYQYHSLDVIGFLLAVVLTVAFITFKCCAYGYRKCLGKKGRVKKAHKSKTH
Experimental: The inhibitory effects of two selaginellins on the metabolism of six UGT probe substrates were evaluated using previously reported method with minor modification. In brief, HLMs (0.25 mg/mL) were activated by incubation in the presence of alamethicin (25 μg/mL) for 15 min on ice. After the addition of UGT isoform-selective substrates and selaginellins (0, 0.5, 2, 5, 20 and 50 μM) the final concentrations of organic solvent (methanol) for the cocktail incubation conditions were 1.0% (v/v). The incubation reaction mixtures were pre-incubated for 5 min. The reaction was initiated by the addition of 5 mM UDPGA and further incubated for 60 min. All reactions were terminated by adding ice-cold acetonitrile containing estrone glucuronide (IS). After mixing and centrifugation, aliquots were injected into a LC-MS/MS as described previously (Table 2). All microsomal incubations were performed in triplicate.
The IC50 values (concentration of the inhibitor causing 50% inhibition of the original enzyme activity) were calculated using WinNonlin software (Pharsight, Mountain View, CA, USA): percentage of control activity = 100 × [1 − (I/(I + IC50))], where I is the inhibitor concentration, and IC50 is the inflection point on the curve.

[3] = target: T2, CYP2A6 (Homo sapiens, UniProt P11509); experiment: CYP2A6 inhibition (coumarin 7-hydroxylase) in human liver microsomes, substrate cocktail LC-MS/MS
T2 construct: the incubation mixtures containing pooled HLMs (0.25 mg/mL, H2630, Xenotech); tissue Xenotech H2630; host or cells: pooled human liver microsomes
T2 sequence (P11509 1-494): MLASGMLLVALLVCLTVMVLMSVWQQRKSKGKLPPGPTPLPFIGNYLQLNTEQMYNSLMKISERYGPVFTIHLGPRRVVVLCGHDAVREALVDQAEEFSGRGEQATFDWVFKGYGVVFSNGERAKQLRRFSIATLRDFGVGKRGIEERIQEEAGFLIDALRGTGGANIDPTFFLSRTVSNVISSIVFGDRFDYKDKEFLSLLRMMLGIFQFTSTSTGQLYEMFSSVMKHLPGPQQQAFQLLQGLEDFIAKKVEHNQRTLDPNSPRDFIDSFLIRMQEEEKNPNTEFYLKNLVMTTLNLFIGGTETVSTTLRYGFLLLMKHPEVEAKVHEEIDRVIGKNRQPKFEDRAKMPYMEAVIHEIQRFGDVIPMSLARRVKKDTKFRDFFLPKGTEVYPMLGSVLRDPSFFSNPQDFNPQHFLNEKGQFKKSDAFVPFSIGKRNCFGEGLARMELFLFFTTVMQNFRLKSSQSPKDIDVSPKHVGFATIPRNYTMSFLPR
Experimental: as §1

| IC50 at 15 min [1] | SMILES | IC50 [2] | IC50 [3] | IC50 at 15 min ([1]; pooled HLMs 0.25 mg/mL, midazolam 5.0 μM, read-out: IC50 P450 isoform 3A) |
| --- | --- | --- | --- | --- |
| > 50 µM | COc1ccc(C(=C2C=CC(=O)C=C2)c2c(-c3ccc(O)cc3)ccc(CO)c2C#Cc2ccc(O)cc2)cc1 [Selaginellin M] | 1.3 µM | > 50 µM |  |
|  | O=C1C=CC(=C(c2ccc(O)cc2)c2c(-c3ccc(O)cc3)ccc(CO)c2C#Cc2ccc(O)cc2)C=C1 [Selaginellin] | 1 µM | > 50 µM | 11.7 µM |
